ChEMBL document CHEMBL1201862, “PubChem BioAssay data set” (2004)
Calls of active or inactive are those of the source.

Legend:
[1] = biological target: T1, Neuropeptides B/W receptor type 1 (Homo sapiens, UniProt P48145); test: Fluorescence-based dose response cell-based high throughput screening assay to identify antagonists of the G-protein coupled receptor 7 (GPR7). [Related pubchem assays: 1952 (Screening assay (GPR7 antagonists).), 1880 (Summary AID.)]; assay type: functional
T1 sequence (P48145 whole entry): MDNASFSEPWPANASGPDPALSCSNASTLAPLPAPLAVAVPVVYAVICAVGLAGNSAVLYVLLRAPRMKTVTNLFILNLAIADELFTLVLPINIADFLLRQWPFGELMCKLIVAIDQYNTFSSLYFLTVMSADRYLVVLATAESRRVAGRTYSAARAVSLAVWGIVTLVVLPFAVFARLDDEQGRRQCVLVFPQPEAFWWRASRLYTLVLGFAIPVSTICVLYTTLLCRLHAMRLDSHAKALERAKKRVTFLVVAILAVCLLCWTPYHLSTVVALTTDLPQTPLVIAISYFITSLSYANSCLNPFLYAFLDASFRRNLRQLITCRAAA

[2] = biological target: Melanin-concentrating hormone receptor 1 (Homo sapiens, UniProt Q99705); test: Fluorescence-based counterscreen for antagonists of the G-protein coupled receptor 7 (GPR7): cell-based high throughput dose response assay to identify antagonists of the melanin-concentrating hormone receptor 1 (MCHR1).; assay type: functional
Chain of Melanin-concentrating hormone receptor 1 (Q99705 whole entry): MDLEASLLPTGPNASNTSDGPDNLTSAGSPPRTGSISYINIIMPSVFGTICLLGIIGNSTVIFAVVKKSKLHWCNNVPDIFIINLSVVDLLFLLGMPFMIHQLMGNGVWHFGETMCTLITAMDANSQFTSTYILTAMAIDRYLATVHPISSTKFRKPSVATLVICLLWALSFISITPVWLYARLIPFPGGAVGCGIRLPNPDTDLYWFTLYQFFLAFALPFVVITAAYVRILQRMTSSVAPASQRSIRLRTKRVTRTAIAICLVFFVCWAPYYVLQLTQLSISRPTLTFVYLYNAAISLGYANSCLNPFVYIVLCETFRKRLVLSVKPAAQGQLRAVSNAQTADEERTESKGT

Cytochrome P450 3A4 = Cytochrome P450 3A4 (Homo sapiens, UniProt P08684);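 also: CYP3A4 tested as one member of a cytochrome P450 panel screen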
Chain of Cytochrome P450 3A4 (P08684 whole entry): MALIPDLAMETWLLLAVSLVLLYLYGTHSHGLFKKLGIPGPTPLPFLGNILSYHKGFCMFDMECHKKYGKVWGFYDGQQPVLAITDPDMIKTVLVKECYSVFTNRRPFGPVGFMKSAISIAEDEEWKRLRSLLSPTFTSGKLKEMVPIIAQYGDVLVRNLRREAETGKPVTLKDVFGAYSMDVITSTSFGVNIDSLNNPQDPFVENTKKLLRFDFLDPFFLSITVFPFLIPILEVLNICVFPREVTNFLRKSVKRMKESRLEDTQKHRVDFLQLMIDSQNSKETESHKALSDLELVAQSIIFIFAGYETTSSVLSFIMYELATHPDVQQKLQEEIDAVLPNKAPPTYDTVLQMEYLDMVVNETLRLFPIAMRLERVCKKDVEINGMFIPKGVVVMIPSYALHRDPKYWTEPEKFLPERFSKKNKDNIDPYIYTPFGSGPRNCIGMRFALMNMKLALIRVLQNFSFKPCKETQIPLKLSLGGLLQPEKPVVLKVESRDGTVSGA

[3] = biological target: T2, Microphthalmia-associated transcription factor (Homo sapiens, UniProt O75030); test: TRPM1 promoter luciferase signal decrease, dose response, MITF inhibitor project, cell-based, SK-MEL-5, cherry-picked, set 3 (AID 493073); assay type: functional
T2 sequence (O75030 whole entry): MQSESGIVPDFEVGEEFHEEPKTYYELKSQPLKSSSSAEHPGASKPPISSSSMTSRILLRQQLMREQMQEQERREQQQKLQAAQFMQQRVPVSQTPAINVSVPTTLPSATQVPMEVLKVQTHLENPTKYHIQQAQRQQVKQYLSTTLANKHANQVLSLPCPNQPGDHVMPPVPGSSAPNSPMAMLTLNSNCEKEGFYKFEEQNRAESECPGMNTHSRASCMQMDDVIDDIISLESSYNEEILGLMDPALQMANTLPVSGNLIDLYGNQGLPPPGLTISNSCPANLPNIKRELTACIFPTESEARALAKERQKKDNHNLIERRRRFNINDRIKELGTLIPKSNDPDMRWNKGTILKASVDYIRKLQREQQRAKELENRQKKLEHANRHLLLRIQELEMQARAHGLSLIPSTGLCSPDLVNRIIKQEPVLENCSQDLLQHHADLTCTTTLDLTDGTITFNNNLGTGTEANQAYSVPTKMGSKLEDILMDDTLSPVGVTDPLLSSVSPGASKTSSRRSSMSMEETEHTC

[4] = biological target: T3, Replicative DNA helicase DnaB (Mycobacterium tuberculosis, UniProt P9WMR3); test: DnaB intein splicing inhibitors, dose response, biochemical, cell-free fluorescence (AID 449749); assay type: functional
T3 sequence (P9WMR3 whole entry): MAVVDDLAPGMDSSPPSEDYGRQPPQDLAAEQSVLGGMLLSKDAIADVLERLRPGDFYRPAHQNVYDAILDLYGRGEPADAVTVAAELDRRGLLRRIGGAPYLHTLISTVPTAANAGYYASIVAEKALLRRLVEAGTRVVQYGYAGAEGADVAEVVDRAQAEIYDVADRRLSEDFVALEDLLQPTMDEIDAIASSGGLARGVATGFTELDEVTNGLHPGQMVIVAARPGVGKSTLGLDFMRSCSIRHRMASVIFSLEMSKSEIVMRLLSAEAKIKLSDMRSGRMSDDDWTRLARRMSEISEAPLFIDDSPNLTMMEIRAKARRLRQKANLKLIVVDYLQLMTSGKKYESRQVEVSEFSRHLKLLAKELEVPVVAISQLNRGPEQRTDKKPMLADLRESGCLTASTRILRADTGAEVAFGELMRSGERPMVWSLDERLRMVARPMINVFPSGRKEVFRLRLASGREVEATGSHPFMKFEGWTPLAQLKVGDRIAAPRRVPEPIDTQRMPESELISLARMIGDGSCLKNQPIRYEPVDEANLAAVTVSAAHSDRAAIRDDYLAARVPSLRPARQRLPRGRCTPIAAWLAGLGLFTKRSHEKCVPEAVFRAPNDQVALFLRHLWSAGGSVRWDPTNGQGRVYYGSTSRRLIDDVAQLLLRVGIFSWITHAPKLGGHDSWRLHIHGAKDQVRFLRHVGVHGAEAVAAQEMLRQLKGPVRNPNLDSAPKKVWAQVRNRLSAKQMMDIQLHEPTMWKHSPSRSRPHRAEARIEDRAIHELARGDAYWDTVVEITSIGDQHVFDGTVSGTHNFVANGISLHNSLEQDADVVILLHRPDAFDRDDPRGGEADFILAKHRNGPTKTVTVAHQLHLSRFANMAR

Protein RecA = biological target: T4, Protein RecA (Mycobacterium tuberculosis, UniProt P9WHJ3); test: Fluorescence Cell-Free Homogeneous Dose Retest to Identify Inhibitors of RecA-Intein Splicing Activity. [Related pubchem assays (depositor defined):AID2097, AID2223, AID489010, AID492950]; assay type: functional
T4 sequence (P9WHJ3 whole entry): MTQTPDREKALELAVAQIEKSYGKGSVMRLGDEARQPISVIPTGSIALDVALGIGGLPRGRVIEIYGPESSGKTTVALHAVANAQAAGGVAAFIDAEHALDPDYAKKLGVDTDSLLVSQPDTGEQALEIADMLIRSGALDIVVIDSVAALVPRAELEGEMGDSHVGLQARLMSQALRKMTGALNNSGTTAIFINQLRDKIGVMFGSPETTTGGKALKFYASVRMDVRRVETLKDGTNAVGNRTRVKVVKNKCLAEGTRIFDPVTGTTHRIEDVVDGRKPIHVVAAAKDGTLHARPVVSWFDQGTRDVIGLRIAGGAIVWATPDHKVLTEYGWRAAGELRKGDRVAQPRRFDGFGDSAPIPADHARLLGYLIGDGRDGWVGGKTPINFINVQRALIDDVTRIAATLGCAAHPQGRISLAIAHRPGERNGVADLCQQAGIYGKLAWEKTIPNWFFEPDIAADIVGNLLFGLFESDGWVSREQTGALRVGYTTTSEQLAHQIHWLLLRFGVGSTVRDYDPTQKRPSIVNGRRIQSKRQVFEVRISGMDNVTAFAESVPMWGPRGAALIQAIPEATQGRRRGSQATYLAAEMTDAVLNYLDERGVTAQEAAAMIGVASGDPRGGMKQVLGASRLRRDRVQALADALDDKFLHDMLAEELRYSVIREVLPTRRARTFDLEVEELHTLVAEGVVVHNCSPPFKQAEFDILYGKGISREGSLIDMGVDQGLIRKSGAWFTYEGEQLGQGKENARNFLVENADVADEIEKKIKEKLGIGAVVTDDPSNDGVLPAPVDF

[5] = HepG2 cell cytotoxicity, dose response, cytotoxicity control, ATP luminescence, cherry-pick, activator set 2 (AID 1053143); assay type: functional, cell-based
HEK293 [6] = test: cells; conditions: Homo sapiens
HEK293 [7] = test: cells; conditions: Homo sapiens; remark: listed apart in the source
[8] = tested on: Streptococcus sp. 'group A'; test: growth inhibition of control SK(-) GAS strain, dose response, counter-screen for streptokinase expression inhibitor project, luminescence, kanamycin, BacTiterGlo, confirmation (AID 1900); assay type: functional, organism-based
Streptokinase A = biological target: T5, Streptokinase A (Streptococcus pyogenes serotype M1, UniProt P10520); test: S. pyogenes streptokinase expression inhibitors, potency, dose response, plasminogen activation absorbance, OD405 (AID 1914); assay type: functional, Streptococcus pyogenes M1 GAS;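 also: secreted streptokinase activity via plasminogen activation per viability signal from cell pellet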
T5 sequence (P10520 whole entry): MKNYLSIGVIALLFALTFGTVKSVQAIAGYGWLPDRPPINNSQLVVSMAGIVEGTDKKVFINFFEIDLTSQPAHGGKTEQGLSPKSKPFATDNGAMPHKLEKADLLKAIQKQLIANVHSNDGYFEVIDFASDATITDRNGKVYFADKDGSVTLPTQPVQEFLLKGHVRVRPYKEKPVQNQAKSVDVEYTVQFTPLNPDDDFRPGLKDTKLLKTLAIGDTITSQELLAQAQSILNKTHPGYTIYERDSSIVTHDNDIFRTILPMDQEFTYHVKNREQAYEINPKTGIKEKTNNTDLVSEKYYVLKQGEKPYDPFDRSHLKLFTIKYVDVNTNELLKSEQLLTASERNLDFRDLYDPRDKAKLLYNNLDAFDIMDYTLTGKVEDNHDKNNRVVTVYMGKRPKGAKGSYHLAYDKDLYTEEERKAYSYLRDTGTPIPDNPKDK

Streptococcus = test: Group A Streptococcus viability loss, dose response, counter-screen for streptokinase expression inhibitor project, luminescence, BacTiterGlo (AID 1915); assay type: functional, organism-based;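 also: potency for reduction of bacterial viability or growth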
[9] = inhibitors of intracellular T. cruzi replication, confirmation, NIH3T3 host cells, beta-gal luminescence (AID 2044); assay type: functional, cell-based;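 also: intracellular parasites grown in NIH/3T3 mouse fibroblasts as host cells; luminescent beta-galactosidase reporter signal from transgenic T. cruzi replicating inside host cells; inhibitors lower the luminescence signal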
[10] = microbe, parasite or virus in culture; assay type: functional; conditions: Mycobacterium tuberculosis
[11] = cytotoxicity toward NIH3T3 fibroblasts, dose response, counter-screen, cell-based, ATP luminescence, mouse fibroblasts (AID 2010); assay type: functional;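 also: cells exposed to compound for about 90 hours before reading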
[12] = THP-1 cell cytotoxicity, dose response, cytotoxicity control for non-replicating M. tuberculosis project (AID 489025); assay type: functional
[13] = HepG2 cell cytotoxicity, dose response, cytotoxicity control for non-replicating M. tuberculosis project (AID 489018); assay type: functional; conditions: Mycobacterium tuberculosis
[14] = Vero E6 cell cytotoxicity, dose response, cytotoxicity control for non-replicating M. tuberculosis project, secondary assay (AID 492998); assay type: functional, VeroE6; conditions: Vero C1008
[15] = biological target: T6, Heat shock factor protein 1 (Mus musculus, UniProt P38532); test: HSF1 potentiators in luciferase reporter cells, confirmation, cell-based, NIH3T3, luminescence, dose retest (AID 435004); assay type: functional;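 also: stress induced by proteasome inhibitor MG132 added 30 min after compound; luciferase reporter driven by HSF1 response element in NIH3T3 cells; actives raise luminescence as potentiators of the MG132 stress response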
T6 sequence (P38532 whole entry): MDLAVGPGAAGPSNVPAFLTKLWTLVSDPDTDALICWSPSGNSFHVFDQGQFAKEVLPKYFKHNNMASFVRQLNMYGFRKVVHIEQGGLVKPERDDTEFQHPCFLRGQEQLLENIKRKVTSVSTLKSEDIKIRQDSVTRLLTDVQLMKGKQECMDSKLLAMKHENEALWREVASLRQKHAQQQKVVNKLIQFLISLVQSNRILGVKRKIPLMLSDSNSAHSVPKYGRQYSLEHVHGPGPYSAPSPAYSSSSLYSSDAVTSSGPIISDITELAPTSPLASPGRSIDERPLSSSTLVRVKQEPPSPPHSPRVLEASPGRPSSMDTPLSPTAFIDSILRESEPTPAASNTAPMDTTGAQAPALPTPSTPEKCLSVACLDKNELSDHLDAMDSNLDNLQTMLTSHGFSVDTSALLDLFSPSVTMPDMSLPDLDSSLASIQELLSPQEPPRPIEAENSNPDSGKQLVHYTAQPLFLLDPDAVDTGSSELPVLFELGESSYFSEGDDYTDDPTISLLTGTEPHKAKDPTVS

cells = assay type: functional
A-375 = test: MITF: Counter assay: A375 proliferation Measured in Cell-Based System Using Plate Reader - 2084-03_Inhibitor_Dose_DryPowder_Activity. [Related pubchem assays (depositor defined):AID488944]; assay type: functional; conditions: Homo sapiens
Escherichia coli = test: microbe, parasite or virus in culture
Cytochrome P450 2C9 = Cytochrome P450 2C9 (Homo sapiens, UniProt P11712)
Chain of Cytochrome P450 2C9 (P11712 whole entry): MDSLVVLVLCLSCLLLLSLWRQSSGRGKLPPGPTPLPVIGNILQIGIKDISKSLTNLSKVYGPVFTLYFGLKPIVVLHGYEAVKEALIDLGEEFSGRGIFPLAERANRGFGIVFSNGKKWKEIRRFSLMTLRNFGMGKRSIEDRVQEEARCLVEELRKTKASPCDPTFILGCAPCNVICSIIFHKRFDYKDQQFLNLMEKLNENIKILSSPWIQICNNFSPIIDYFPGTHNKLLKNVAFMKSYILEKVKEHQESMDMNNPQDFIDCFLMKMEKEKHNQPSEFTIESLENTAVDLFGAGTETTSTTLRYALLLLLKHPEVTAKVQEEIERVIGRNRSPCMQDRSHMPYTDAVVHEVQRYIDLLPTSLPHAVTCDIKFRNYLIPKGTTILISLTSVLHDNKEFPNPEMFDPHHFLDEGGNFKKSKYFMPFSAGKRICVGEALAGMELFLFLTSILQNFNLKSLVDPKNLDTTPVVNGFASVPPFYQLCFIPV

SMILES: Cc1ccccc1Oc1ncnc2oc(-c3ccccc3)cc12
- IC50 [1]: > 43.8 µM (not active)
- IC50 [2]: 24.3 µM (not active)
- AC50 (Cytochrome P450 3A4): inconclusive

SMILES: COc1ccccc1NC(=O)c1cnc(SCC(=O)NCC2CCCO2)n(C)c1=O (stereo not given)
- AC50 [3]: 8.88 µM (active)
- AC50 [4]: 9.19 µM (active)
- EC50 (Protein RecA): 10.8 µM (active)
- AC50 [5]: 42.4 µM (active)
- EC50 (HEK293 [6]): > 59.6 µM (inactive)
- EC50 (HEK293 [7]): > 59.6 µM (inactive)

SMILES: Fc1ccc(-n2cc(-c3ccccc3)c3c(S)ncnc32)cc1
- EC50 [8]: 12.1 µM (active)
- EC50 (Streptokinase A): > 150 µM (not active)
- EC50 (Streptococcus): > 150 µM (not active)
- EC50 (HEK293 [6]): > 59.6 µM (inactive)
- EC50 (HEK293 [7]): > 59.6 µM (inactive)

SMILES: CC(C)(C)c1ccc(Cn2c(=N)n(CC(O)c3ccco3)c3ccccc32)cc1 (stereo not given)
- EC50 [9]: 2.12 µM (active)
- CC50 [10]: 11.9 µM (active)
- EC50 [11]: > 60 µM (not active)
- CC50 [12]: 9.05 µM (active)
- CC50 [13]: 9.26 µM (active)
- CC50 [14]: 15.7 µM (active)
- EC50 [15]: > 260 µM (inactive)
- AC50 [3]: 11.8 µM (active)
- IC50 (cells): 22 µM (active)
- AC50 (A-375): 18.6 µM (active)

SMILES: O=C(Nc1ccccc1F)c1ccc([N+](=O)[O-])s1
- EC50 [9]: 0.614 µM (active)
- EC50 [11]: > 30 µM (not active)
- CC50 [12]: 28.8 µM (active)
- CC50 [14]: > 20 µM (active)
- IC50 (cells): 4.91 µM (active)
- AC50 (Escherichia coli): 27.5 µM (active)

SMILES: CCOC(=O)N1CCN(CC(=O)c2ccc3c(c2)CCN3)CC1
- AC50 (Cytochrome P450 2C9): 17.8 µM (inconclusive)
- AC50 (Cytochrome P450 3A4): inconclusive

SMILES: CO[C@H]1C=CO[C@@]2(C)Oc3c(C)c(O)c4c(O)c(c(C=NN5CCN(C)CC5)c(O)c4c3C2=O)NC(=O)C(C)=CC=C[C@H](C)[C@H](O)[C@@H](C)[C@@H](O)[C@@H](C)[C@H](OC(C)=O)[C@@H]1C
- EC50 [8]: < 0.06 µM (active)
- EC50 (Streptococcus): < 0.06 µM (active)
- AC50 (Escherichia coli): 14.8 µM (active)
